Publication PMC5578373, “Inhibitory Kappa B Kinase α (IKKα) Inhibitors That Recapitulate Their Selectivity in Cells against Isoform-Related Biomarkers” (Journal of Medicinal Chemistry, 2017)
Entries after “also recorded” stand apart in the source; their conditions may differ. Read-outs that look alike come from different tables or passages of the source.

Columns and labels:
[1] = tested on: IKKβ-dependent IκBα degradation in U2OS cells; test: TNFα-induced IκBα degradation in U2OS cells, Western blot; format: cell-based, human; details: highest concentration 100 μM, TNF-α (10 ng/mL) 30 min
Method: (§1) Two IKKβ-dependent readouts were selected to assess selectivity over IKKβ. First, TNFα stimulates IκBα degradation through activation of IKKβ and if IKKβ is inhibited, then a band corresponding to the IκBα protein should be evident by Western analysis. Second, IKKβ phosphorylates p65 on Ser536, which can also be assessed by Western blot analysis. Only at the highest concentration (100 μM) of 48 was IκBα degradation and p65 (Ser536) phosphorylation inhibited (Figure 9b). Even at this high concentration, these effects were not apparent following pretreatment with 47 (Figure 10b).
(§2) Figure 9 Effect of compound 48 on (a) FCS-stimulated noncanonical and (b) TNF-α-induced canonical NF-kB activation in U2OS cells. […] Whole cell lysate were prepared, separated by SDS-PAGE, and assessed for (a) inhibition of p100 phosphorylation (Ser866/870) and (b) IkB-α and p-p65 (Ser536) status. […]
(§3) Figure 10 Effect of compound 47 on (a) FCS-stimulated noncanonical and (b) TNF-α-induced canonical NF-kB activation in U2OS cells. […] Whole cell lysate were prepared, separated by SDS-PAGE, and assessed for (a) inhibition of p100 phosphorylation (Ser866/870) and (b) IkB-α and p-p65 (Ser536) status. […]
(§4) Whole cell lysates were prepared from U2OS and status of IκBα, p65, p-p65 (Ser536), and p-p100 (Ser 866/870) assessed by Western blotting as described in Mackenzie et al. (2007).[46]

[2] = tested on: IKKα-regulated NF-κB transcriptional activation in IKKβ−/− MEFs; test: IL-1β-stimulated NF-κB-luciferase transcriptional activity in IKKβ knockout MEFs; format: cell-based, mouse
Method: To provide further evidence for cellular activity, mouse embryonic fibroblasts lacking the IKKβ kinase subunit were utilized to investigate the potency of both compounds against agonist-stimulated IKKα-regulated NF-κB transcriptional activation. Cells were infected with an adenovirus encoding an NF-κB-luciferase promoter gene. NF-κB transcriptional activity driven by IKKα was stimulated specifically using IL-1β,[41] and the ability of the compounds to inhibit this response was assessed. […] As IKKα plays a lesser role in the canonical NF-κB cascade,[42] particularly the rapid and transient stimulated degradation of IκBα, selective IKKα inhibitors should not affect TNF-α induced IκBα degradation and p65 phosphorylation.
(§5) U2OS cells were cultured with McCoy’s 5A modified medium and MEF were cultured with DEME medium containing 10% (v/v) FCS and medium was changed every 2 d thereafter until cells became confluent. Cells were incubated at 37 °C in humidified air with 5% CO2 and rendered quiescent by serum deprivation for 24 h prior to stimulation in serum-free medium.
An adenoviral vector encoding NFκB-luciferase (Adv.NFκB-Luc) was purchased from Vector Biolabs (University of Pennsylvania, Philadelphia, US). Large-scale production of high titer recombinant adenovirus was performed by routine methods.[47] IKKβ knockout mouse embryonic fibroblasts (MEFs; kindly provided by Prof. I. Verma, UCSD, USA) were counted when approximately 60–70% confluent in T75 cm^2 flasks and infected with adenovirus up to 300 pfu/cell^–1 for 24 h in 10% DMEM. Cells were then lifted from the flasks and plated into 96-well clear bottom, black luciferase plates and allowed to settle for 24 h before serum starved overnight. Cells were then stimulated with the appropriate agonists for the indicated times and reactions terminated by addition of lysis buffer containing 0.2 mM luciferin substrate. Relative light units (RLU) were measured using a Trilux microbeta counter (luminometer).

[3] = tested on: IKKβ-dependent p65 (Ser536) phosphorylation in U2OS cells; test: TNFα-induced p65 (Ser536) phosphorylation in U2OS cells, Western blot; format: cell-based, human; details: highest concentration 100 μM, TNF-α (10 ng/mL) 30 min
Method: as §1, §2, §3, §4

[4] = tested on: IKKα-driven p100 phosphorylation in U2OS cells; test: FCS-stimulated p100 phosphorylation (Ser866/870) in U2OS cells, Western blot; format: cell-based, human; details: 1 h pretreatment, FCS (10%) for 4 h, blots quantified, read-out: IC50 for inhibition of p100 phosphorylation
Method: as §1
Figure 9 Effect of compound 48 on (a) FCS-stimulated noncanonical and (b) TNF-α-induced canonical NF-kB activation in U2OS cells. Cells were pretreated with 48 1 h prior to stimulation with FCS (10%) for 4 h or TNF-α (10 ng/mL) for 30 min. Whole cell lysate were prepared, separated by SDS-PAGE, and assessed for (a) inhibition of p100 phosphorylation (Ser866/870) and (b) IkB-α and p-p65 (Ser536) status. […] The results are representative of three independent experiments.
Figure 10 Effect of compound 47 on (a) FCS-stimulated noncanonical and (b) TNF-α-induced canonical NF-kB activation in U2OS cells. Cells were pretreated with 47 1 h prior to stimulation with FCS (10%) for 4 h or TNF-α (10 ng/mL) for 30 min. Whole cell lysate were prepared, separated by SDS-PAGE, and assessed for (a) inhibition of p100 phosphorylation (Ser866/870) and (b) IkB-α and p-p65 (Ser536) status. […] The results are representative of three independent experiments.
as §5, §4

## N#Cc1c[nH]c2nc(N)nc(-c3ccc(CO)cc3)c12 [Compound 47, 2-Amino-4-(4-hydroxymethyl)phenyl-7H-pyrrolo[2,3-d]pyrimidine-5-carbonitrile]
[1]
  inhibition of TNFα-stimulated IκBα degradation: not apparent; also recorded: did not affect
[2]; 100 μM compound, 1 h pretreatment, IL-1β (10 ng/mL) 6 h, IL-1β + DMSO = 100, mean ± SEM
  % stimulation: –40.9 ± 4.6 %
[2]; maximal concentrations of 50–100 μM
  inhibition of NF-κB transcriptional activity: approximately 81%
[2]; maximal concentrations of 50–100 μM, Il-1β+DMSO = 100%
  % stim: 18.79 ± 7.2%
[3]
  inhibition of TNFα-stimulated p65 (Ser536) phosphorylation: not apparent; also recorded: did not affect
[4]
  IC50: 19.1 µM
[4]; Homo sapiens, U2OS
  IC50: 13.9 µM
